Experimental data: the supplement of paper PMC5908809

Columns and labels:
DERL-7 (IL-2 2.5 ng/mL) [1] = test: drug sensitivity score (DSS) (DSS units); higher = more sensitive; extreme values may be limits of the assay; conditions: 72 h
[2] = tested on: normal primary NK cells, pool 2 (3 donors) (IL-2 2.5 ng/mL); test: as above; conditions: 72 h
IMC-1 (IL-2 20 ng/mL) [3] = test: as above; conditions: 72 h
[4] = tested on: normal primary NK cells, pool 1 (3 donors) (IL-2 2.5 ng/mL); test: as above; conditions: 72 h
[5] = tested on: normal primary NK cells, pool 1 (3 donors), resting (IL-2 0 ng/mL); test: as above; conditions: 72 h
[6] = tested on: normal primary NK cells, pool 3 (3 donors) (IL-2 2.5 ng/mL); test: as above; conditions: 72 h
NKL (IL-2 2.5 ng/mL) [7] = test: as above; conditions: 72 h
YT (IL-2 2.5 ng/mL) [8] = test: as above; conditions: 72 h
NK-YS (IL-2 2.5 ng/mL) [9] = test: as above; conditions: 72 h
SNK-6 (IL-2 2.5 ng/mL) [10] = test: as above; conditions: 72 h
NK-92 (IL-2 2.5 ng/mL) [11] = test: as above; conditions: 72 h
KAI3 (IL-2 2.5 ng/mL) [12] = test: as above; conditions: 72 h
KHYG-1 (IL-2 2.5 ng/mL) [13] = test: as above; conditions: 72 h
[14] = tested on: normal NK cells expanded with K562-aAPC; test: as above; conditions: 72 h; IL-2 2.5 ng/mL
Protocol: (§1)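 Drug sensitivity and resistance testing on K562-aAPC-expanded normal NK cells: 5 concentrations (10-fold steps over a 10,000-fold range), 72 h at 37 °C, viability by CellTiter-Glo normalised to DMSO and benzethonium chloride controls; DSS from the fitted curve.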

DERL-7 (IL-2 2.5 ng/mL) [15] = test: percent inhibition of viability; higher = more inhibition; conditions: 72 h
[16] = tested on: normal primary NK cells, pool 2 (3 donors) (IL-2 2.5 ng/mL); test: as above; conditions: 72 h
IMC-1 (IL-2 20 ng/mL) [17] = test: as above; conditions: 72 h
[18] = tested on: normal primary NK cells, pool 1 (3 donors) (IL-2 2.5 ng/mL); test: as above; conditions: 72 h
[19] = tested on: normal primary NK cells, pool 1 (3 donors), resting (IL-2 0 ng/mL); test: as above; conditions: 72 h
[20] = tested on: normal primary NK cells, pool 3 (3 donors) (IL-2 2.5 ng/mL); test: as above; conditions: 72 h
NKL (IL-2 2.5 ng/mL) [21] = test: as above; conditions: 72 h
YT (IL-2 2.5 ng/mL) [22] = test: as above; conditions: 72 h
NK-YS (IL-2 2.5 ng/mL) [23] = test: as above; conditions: 72 h
SNK-6 (IL-2 2.5 ng/mL) [24] = test: as above; conditions: 72 h
NK-92 (IL-2 2.5 ng/mL) [25] = test: as above; conditions: 72 h
KAI3 (IL-2 2.5 ng/mL) [26] = test: as above; conditions: 72 h
KHYG-1 (IL-2 2.5 ng/mL) [27] = test: as above; conditions: 72 h
[28] = tested on: normal NK cells expanded with K562-aAPC; test: as above; conditions: 72 h, IL-2 2.5 ng/mL
Protocol: as §1

Cc1cn(-c2cc(NC(=O)c3ccc(C)c(Nc4nccc(-c5cccnc5)n4)c3)cc(C(F)(F)F)c2)cn1 [Nilotinib] (max concentration tested 10000 nM)
Conditions	drug sensitivity score
DERL-7 (IL-2 2.5 ng/mL) [1]	0
IMC-1 (IL-2 20 ng/mL) [3]	0
KAI3 (IL-2 2.5 ng/mL) [12]	0.95
KHYG-1 (IL-2 2.5 ng/mL) [13]	0.72
NK-92 (IL-2 2.5 ng/mL) [11]	7.73
NK-YS (IL-2 2.5 ng/mL) [9]	1.36
NKL (IL-2 2.5 ng/mL) [7]	6.35
SNK-6 (IL-2 2.5 ng/mL) [10]	6.76
YT (IL-2 2.5 ng/mL) [8]	2.28
[2]	0
[4]	0
[5]	0
[6]	0
[14]	2.11

percent inhibition of viability [%]
Conditions	1 nM	10 nM	100 nM	1000 nM	10000 nM
DERL-7 (IL-2 2.5 ng/mL) [15]	-4.23	4.31	-3.59	-5.83	-5.46
IMC-1 (IL-2 20 ng/mL) [17]	-4.03	-1.9	2.58	0.7	-38.1
KAI3 (IL-2 2.5 ng/mL) [26]	-3.54	-7.12	4.99	7.48	20
KHYG-1 (IL-2 2.5 ng/mL) [27]	-0.89	0.67	11.9	5.38	17.9
NK-92 (IL-2 2.5 ng/mL) [25]	12.4	5.92	27.1	23.8	33.9
NK-YS (IL-2 2.5 ng/mL) [23]	-1.07	-0.64	9.04	11.3	15.7
NKL (IL-2 2.5 ng/mL) [21]	-17.5	-6.91	-4.77	29.9	50.9
SNK-6 (IL-2 2.5 ng/mL) [24]	11.9	22.4	9.61	18.6	37.7
YT (IL-2 2.5 ng/mL) [22]	1.35	1.76	8.97	16.1	18.2
[16]	-15.7	-12.8	-10.3	-4.04	1.26
[18]	3.44	-14	-6.22	-13.6	-12.9
[19]	7.74	-12.7	-5.01	-11.6	-17.4
[20]	-13.2	-5.87	-1.78	-9.25	-1.3
[28]	-1.85	-4.37	-3.71	7.45	26.5

Nc1cc(F)ccc1NC(=O)/C=C/c1cnn(C/C=C/c2ccccc2)c1 [RGFP966] (max concentration tested 10000 nM)
Conditions	drug sensitivity score
DERL-7 (IL-2 2.5 ng/mL) [1]	7.16
IMC-1 (IL-2 20 ng/mL) [3]	1.17
KAI3 (IL-2 2.5 ng/mL) [12]	5.75
KHYG-1 (IL-2 2.5 ng/mL) [13]	3.64
NK-92 (IL-2 2.5 ng/mL) [11]	6.98
NK-YS (IL-2 2.5 ng/mL) [9]	2.39
NKL (IL-2 2.5 ng/mL) [7]	8.18
SNK-6 (IL-2 2.5 ng/mL) [10]	5.69
YT (IL-2 2.5 ng/mL) [8]	1.24
[2]	0
[4]	0
[5]	0.22
[6]	0
[14]	0

percent inhibition of viability [%]
Conditions	1 nM	10 nM	100 nM	1000 nM	10000 nM
DERL-7 (IL-2 2.5 ng/mL) [15]	-5.83	-2.09	9.7	22.7	77.1
IMC-1 (IL-2 20 ng/mL) [17]	-2.38	0.66	0.87	7.16	19.2
KAI3 (IL-2 2.5 ng/mL) [26]	3.23	7.54	1.59	11.1	70.5
KHYG-1 (IL-2 2.5 ng/mL) [27]	-1.2	0.69	1.5	8.74	43.4
NK-92 (IL-2 2.5 ng/mL) [25]	3.38	1.97	18.1	20.7	79.9
NK-YS (IL-2 2.5 ng/mL) [23]	-1.47	0.43	1.84	5.06	33.6
NKL (IL-2 2.5 ng/mL) [21]	-2.36	10.4	5.66	29.4	82.3
SNK-6 (IL-2 2.5 ng/mL) [24]	6.08	7.31	9.67	21	62.2
YT (IL-2 2.5 ng/mL) [22]	-2.17	-1.29	1.57	1.53	26.1
[16]	-11.2	-8.68	8.11	0.44	9.58
[18]	-6.12	-12	2.42	-14.4	-7.06
[19]	0.87	-9.67	-2.19	-2.37	16.1
[20]	-1.19	-0.09	10.8	-6.25	4.39
[28]	4.29	0.23	1.76	9.82	9.19
